We go through five compounds from PMC11785708, “Design and synthesis of new quinazolinone derivatives: investigation of antimicrobial and biofilm inhibition effects” (Molecular Diversity, 2024).

Series [1] has as its system C. albicans ATCC 10231. Put plainly: MIC determination, C. albicans. The settings on record: serial dilutions, triplicate; for MIC: Candida albicans, ATCC10231. It counts as cell-based, Candida albicans. On the procedure:
(§1) Serial dilutions of the test compounds were tested to determine their MIC against the most susceptible organisms. The MIC was expressed as the lowest concentration which inhibited the visible growth of the corresponding microorganism. All assays were performed in triplicate.

The test system of series [2] is B. cereus ATCC 6629. Put plainly: MIC determination, B. cereus. It counts as cell-based, Bacillus cereus. To be noted: Bacillus cereus, ATCC6629; serial dilutions, triplicate. How it is done:
as §1

Series [3] in a line: Cell viability MTT assay. It counts as cell-based. To be noted: human, BJ1 cells (normal skin fibroblasts). How it is done: Cell viability testing at 5 mg/ml was carried out by colorimetric MTT assay on human normal cell line BJ1 (skin fibroblasts) to investigate the toxicity of the most broad spectrum derivatives 9, 15, 16, 18, 19, 20 and 29 (Table 3). The viability of the cells treated with the aforementioned derivatives was more than 87% at 5 mg/ml concentration. This gives indication that the compounds are tolerated and nontoxic for human cells, as the cytotoxic dose was higher than the therapeutic dose on most of microorganisms. It is worth mentioning that the safe limit of the percent of dead cells is not an absolute value and could be more than 10% as reported in previous studies.
The most broad spectrum compounds were evaluated for their cytotoxic activity against BJ1 cell line using colorimetric MTT [3-(4,5-dimethylthiazol-2-yl)-2,5-diphenyltetrazolium bromide] assay.

For series [4], the system named is P. aeruginosa ATCC 27953. Put plainly: Agar well diffusion, P. aeruginosa. It counts as cell-based. The settings on record: Pseudomonas aeruginosa, ATCC27953; 100 μl of test compound 20 mg/ml in DMF; ciprofloxacin and fluconazole 30 μg/ml; 24 h; mean ± SD; read-out: diameters of inhibition zone, P. aeruginosa ATCC 27953. How it is done:
(§2) The antimicrobial activity was tested against Gram positive bacteria: Bacillus cereus (B. cereus ATCC 6629), Bacillus subtilis (B. subtilis ATCC 6633), Staphylococcus aureus (S. aureus ATCC 6538), Gram negative bacteria: Klebsiella pneumoniae (K. pneumoniae ATCC 13883), Pseudomonas aeruginosa (P. aeruginosa ATCC 27953) and Candida albicans (C. albicans ATCC 10231). Glycerol stocks were thawed upon need and propagated into nutrient broth at 37 °C. The antibacterial activity of the compounds 9-32 was carried out in vitro using the agar well diffusion method, originally reported by […] and Bauer and coworkers and described by the National Committee for Clinical Laboratory Standards (NCCLS). Bacterial strains, adjusted at […] (equivalent to 0.5 McFarland), were used to inoculate nutrient agar plates. 9-mm diameter wells were punched into the solidified nutrient agar plates using sterile cork borer and 100 μl samples of the test compounds, dissolved in dimethyl formamide (DMF) at 20 mg/ml concentrations, were added and allowed to diffuse at 4 °C for 2 h. Subsequently, the plates were incubated overnight in an upright position at 37 °C. DMF was used as a negative control while ciprofloxacin and fluconazole (30 μg/ml) served as positive controls. After 24 h incubation, the diameters of the growth inhibition zones were recorded in mm. Data was expressed as mean ± standard deviation of three replicates.

The subject of series [5] is P. aeruginosa ATCC 27953. The series is described as follows: MIC determination, P. aeruginosa. It counts as cell-based, Pseudomonas aeruginosa. To be noted: Pseudomonas aeruginosa, ATCC27953; serial dilutions, triplicate. How it is done: as §1
Series [6] relates to S. aureus ATCC 6538. The series is described as follows: Agar well diffusion, S. aureus. It counts as cell-based. The settings on record: Staphylococcus aureus, ATCC6538; 100 μl of test compound 20 mg/ml in DMF; ciprofloxacin and fluconazole 30 μg/ml; 24 h; mean ± SD; read-out: diameters of inhibition zone, S. aureus ATCC 6538. How it is done:
as §2

Series [7] concerns C. albicans ATCC 10231. The series is described as follows: Agar well diffusion, C. albicans. It counts as cell-based. To be noted: Candida albicans, ATCC10231; 100 μl of test compound 20 mg/ml in DMF; ciprofloxacin and fluconazole 30 μg/ml; 24 h; mean ± SD; read-out: diameters of inhibition zone, C. albicans ATCC 10231. How it is done:
as §2

Series [8] has as its system B. cereus ATCC 6629. The series is described as follows: Agar well diffusion, B. cereus. It counts as cell-based. To be noted: Bacillus cereus, ATCC6629; 100 μl of test compound 20 mg/ml in DMF; ciprofloxacin and fluconazole 30 μg/ml; 24 h; mean ± SD; read-out: diameters of inhibition zone, B. cereus ATCC 6629. On the procedure:
as §2

In series [9] the test system is S. aureus ATCC 6538. The series is described as follows: MIC determination, S. aureus. It counts as cell-based, Staphylococcus aureus. To be noted: serial dilutions, triplicate; for MIC: Staphylococcus aureus, ATCC6538. On the procedure:
as §1

Series [10] concerns B. subtilis ATCC 6633. The series is described as follows: Agar well diffusion, B. subtilis. It counts as cell-based. To be noted: Bacillus subtilis, ATCC6633; 100 μl of test compound 20 mg/ml in DMF; ciprofloxacin and fluconazole 30 μg/ml; 24 h; mean ± SD; read-out: diameters of inhibition zone, B. subtilis ATCC 6633. How it is done:
as §2

The test system of series [11] is K. pneumoniae ATCC 13883. Put plainly: Agar well diffusion, K. pneumoniae. It counts as cell-based. The settings on record: Klebsiella pneumoniae, ATCC13883; 100 μl of test compound 20 mg/ml in DMF; ciprofloxacin and fluconazole 30 μg/ml; 24 h; mean ± SD; read-out: diameters of inhibition zone, K. pneumoniae ATCC 13883. How it is done:
as §2

The subject of series [12] is B. subtilis ATCC 6633. The series is described as follows: MIC determination, B. subtilis. It counts as cell-based, Bacillus subtilis. The settings on record: Bacillus subtilis, ATCC6633; serial dilutions, triplicate. How it is done:
as §1

Series [13] concerns K. pneumoniae ATCC 13883. Put plainly: MIC determination, K. pneumoniae. It counts as cell-based, Klebsiella pneumoniae. The settings on record: Klebsiella pneumoniae, ATCC13883; serial dilutions, triplicate. How it is done: as §1
Series [14] concerns P. aeruginosa ATCC 27953. Put plainly: Inhibition of exopolysaccharide (EPS) production. It counts as cell-based, Pseudomonas aeruginosa. The settings on record: means ± standard errors. On the procedure: The inhibition of exopolysaccharide production by P. aeruginosa ATCC 27953 using quinazolinone derivatives was assessed according to total carbohydrate measurement.
P. aeruginosa’s biofilm was grown in the presence or absence of compounds (19, 20). Cells were incubated for 1 h with an equal volume of 5% (v/v) phenol and 5 × volume of concentrated sulfuric acid containing 0.2% (w/v) hydrazine sulphate then centrifuged at 10,000 g for 10 min (Z 326 K, HERMLE Labortechnik GmbH, Wehingen, Germany). The optical density of the supernatant was measured at 490 nm and the reduction in EPS was calculated as follows: EPSquantification%=OD490ofcontrol-OD490oftest/OD490ofcontrol×100

The structures appear in SMILES notation. Values after ≈ are worked out from the molar mass of the structure shown.

For the compound `O=c1c2ccccc2nc(CN2CCCC2)n1N=Cc1ccc(Cl)cc1` [Compound 16, 3-[(4-Chlorobenzylidene)amino]-2-(pyrrolidin-1-ylmethyl).quinazolin-4(3H)-one], the melting point is 138 °C. This compound also came in with an MIC in series [1] of 10000 ± 500 µg/mL (≈ 27.3 mM). In series [2], this compound came in with an MIC of 2000 ± 140 µg/mL (≈ 5.45 mM). In series [3], this compound registered a viability at 5 mg/ml of 93.5 ± 1.54%. The zone of inhibition at 20000 µg/mL in series [4] amounted to 17 ± 0.26 mm. In series [5], this compound came in with an MIC of 1500 µg/mL (≈ 4.09 mM). For the same compound, in series [6], the zone of inhibition at 20000 µg/mL worked out at 12 ± 0.08 mm. The zone of inhibition at 20000 µg/mL in series [7] came out at 13 ± 0.29 mm. Further, in [8], the zone of inhibition at 20000 µg/mL is 13 ± 0.14 mm. In [9], 500 µg/mL (≈ 1.36 mM) was the least that counted as inhibitory (MIC) and the “MIC, S. aureus ATCC 6538” value worked out at 500 ± 0 µg/mL (≈ 1.36 mM).

`COc1ccc(C=Nn2c(CN3CCCC3)nc3ccccc3c2=O)cc1` [Compound 18, 3-[(4-Methoxybenzylidene)amino]-2-(pyrrolidin-1-ylmethyl)quinazolin-4(3H)-one] came in with a melting point of 118 to 120 °C. In series [1], this compound gave an MIC of 10000 ± 290 µg/mL (≈ 27.6 mM). In series [2], the MIC worked out at 2500 ± 290 µg/mL (≈ 6.9 mM). The same compound gave a viability at 5 mg/ml in series [3] of 87.2 ± 2.34%. Moreover, the zone of inhibition at 20000 µg/mL in series [10] was 16 ± 0.31 mm. For the same compound, the zone of inhibition at 20000 µg/mL in series [11] turned out to be 18 ± 0.2 mm. The zone of inhibition at 20000 µg/mL in series [6] amounted to 14 ± 0.21 mm. The same compound returned an MIC in series [12] of 1500 ± 290 µg/mL (≈ 4.14 mM). The MIC in series [13] turned out to be 2000 µg/mL (≈ 5.52 mM). Further, the zone of inhibition at 20000 µg/mL in series [7] is 13 ± 0.14 mm. The zone of inhibition at 20000 µg/mL in [8] amounted to 17 ± 0.3 mm. Moreover, in [9], the MIC turned out to be 2500 µg/mL (≈ 6.9 mM).

Consider `COc1ccc(C=Nn2c(CN3CCOCC3)nc3ccccc3c2=O)cc1` [Compound 30, 3-[(4-Methoxylbenzylidene)amino]-2-(morpholinomethyl)quinazolin-4(3H)-one], for which the melting point came out at 138 °C. The zone of inhibition at 20000 µg/mL in [11] is 14 ± 0.15 mm. The zone of inhibition at 20000 µg/mL in [6] was 12 ± 0.12 mm.

As for `O=c1c2ccccc2nc(CN2CCCC2)n1N=Cc1ccccc1` [Compound 15, 3-(Benzylideneamino)-2-(pyrrolidin-1-ylmethyl)quinazolin-4(3H)-one], the melting point lay within 108 to 110 °C. Moreover, in series [1], the MIC amounted to 5000 µg/mL (≈ 15 mM) and the “MIC, C. albicans ATCC 10231” value is 5000 ± 290 µg/mL (≈ 15 mM). This compound had a viability at 5 mg/ml in series [3] of 88.4 ± 0.91%. In series [10], the zone of inhibition at 20000 µg/mL stood at 10 ± 0.33 mm. The zone of inhibition at 20000 µg/mL in series [11] is 13 ± 0.41 mm. Moreover, the zone of inhibition at 20000 µg/mL in series [6] was found to be 12 ± 0.26 mm. This compound also showed an MIC in [12] of 2000 ± 290 µg/mL (≈ 6.02 mM). This compound displayed an MIC in series [13] of 2000 µg/mL (≈ 6.02 mM). The zone of inhibition at 20000 µg/mL in series [7] amounted to 11 ± 0.11 mm. Also, the MIC in [9] amounted to 2000 ± 290 µg/mL (≈ 6.02 mM).

On to `O=C(O)c1cn(C2CC2)c2cc(N3CCNCC3)c(F)cc2c1=O` [Ciprofloxacin, reference compound], for which the zone of inhibition at 20000 µg/mL in series [4] came out at 35 ± 0.28 mm; in [10], 33 ± 0.2 mm; in series [11] it was 26 ± 0.17 mm; in series [6], 23 ± 0.15 mm; in [8], 29 ± 0.18 mm. The “% EPS inhibition” value in [14] (1/4 MIC) is listed as 1.46 ± 0.28%; in [14] (1 MIC) it was 8.98 ± 0.52%; in [14] (2 MIC), 16.54 ± 0.61%; in [14] (2 MIC, listed as ciprofloxacin), ~ 16%.
